Experimental data taken from patent US5710011A, “Mediators to oxidoreductase enzymes” (Medisense, Inc., priority 1992, dated 1998).
One block for each molecule: values may come before it.

Legend:
[1] = target: T1, Horseradish peroxidase (HRP) (Armoracia rusticana, UniProt P00433); test: Mediation to horseradish peroxidase, rotating ring-disk voltammetry; assay type: biochemical; settings: mediator 0.5 mM, HRP 280 U, ring poised at -100 mV, disk scanned -100 to -600 mV
T1 sequence (P00433 31-338): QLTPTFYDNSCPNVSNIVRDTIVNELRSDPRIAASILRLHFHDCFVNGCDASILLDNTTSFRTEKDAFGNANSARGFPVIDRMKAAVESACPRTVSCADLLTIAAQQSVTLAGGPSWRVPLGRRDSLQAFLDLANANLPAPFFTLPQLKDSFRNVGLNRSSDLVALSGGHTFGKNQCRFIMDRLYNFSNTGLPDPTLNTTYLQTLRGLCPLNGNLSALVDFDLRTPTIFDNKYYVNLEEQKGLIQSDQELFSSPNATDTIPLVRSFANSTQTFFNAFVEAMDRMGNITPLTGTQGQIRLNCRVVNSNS
Procedure: (§1) The phosphate buffer solution (PBS) of 0.15 M phosphate (with 0.2 M sodium chloride as supporting electrolyte), pH 7.0, containing 0.1 M glucose was prepared using Analar reagents from Merck BDH. The solution was stored overnight at 4° C. prior to use to allow equilibration of the α- and β-anomers. Glucose oxidase (EC 1.1.3.4 from Aspergillus niger) was supplied by Sturge Enzymes. Horseradish peroxidase was obtained from Biozyme.
The ability of the β-cyclodextrin adduct of the manganese complex Compound 10 to mediate with […] (HRP) was assessed by comparing it with 1,1'-dimethylferrocene ethanolamine using rotating ring-disk voltammetry according to a literature method (Anal. Chem., 62 (1990) 2429). Experiments were carded out using a glass cell (14 ml capacity) containing a platinum counter electrode with a calomel reference electrode. A gold-gold ring-disk electrode, rotated at 4 Hz, was immersed in a phosphate-buffered saline solution of the mediator (0.5 mM) containing HRP (280 U). The catalytic ring current was then measured while poising the ring electrode at -100 mV and scanning the disk electrode from -100 to -600mV to generate hydrogen peroxide.

[2] = Cyclic voltammetry of the complexes in aqueous buffer (PBS); assay type: physicochemical; settings: for EOX: arene chromium tricarbonyl complexes, aqueous electrochemistry; for potential of the voltammetric wave: manganese complexes in aqueous buffer (PBS)
[3] = Cyclic voltammetry of screen-printed carbon electrodes containing the complex; assay type: physicochemical; settings: for oxidation wave potential: screen-printed carbon electrodes, scan rates 50 and 100 mV/s
Procedure: (§2) Screen-printed electrodes incorporating Compound 6 were produced from an organic carbon ink containing the chromium complex at a level of 3.5 mg/g ink. FIG. 2a comprises cyclic voltammograms of electrodes containing the chromium complex Compound 6 at 50 mV/s and 0.2 μA/cm in PBS, and FIG. 2b the catalytic wave upon addition of 100 μl glucose oxidase recorded at 20 mV/s and 0.5 μA/cm. […] From FIG. 2b, it is seen that GOD mediation occurs on applying mixtures of enzyme and glucose to the electrodes, with small catalytic currents of about 1 μA.
Further work with the dithiocarbamate complexes Compounds 10 to 12 was carried out with screen-printed carbon electrodes produced from carbon inks mixed with each of the complexes. […] Catalytic currents in the region of 4 μA were recorded in the presence of GOD and glucose. Variable but increased currents of up to 29 μA were obtained with 0.1 M glucose when the enzyme was confined in the carbon electrode with the mediator, see FIG. 9.

glucose oxidase (GOD) [4] = target: T2, glucose oxidase (GOD) (Aspergillus niger, UniProt P13006); test: Mediation to glucose oxidase with screen-printed carbon electrodes containing the mediator; assay type: biochemical
T2 sequence (P13006 17-605): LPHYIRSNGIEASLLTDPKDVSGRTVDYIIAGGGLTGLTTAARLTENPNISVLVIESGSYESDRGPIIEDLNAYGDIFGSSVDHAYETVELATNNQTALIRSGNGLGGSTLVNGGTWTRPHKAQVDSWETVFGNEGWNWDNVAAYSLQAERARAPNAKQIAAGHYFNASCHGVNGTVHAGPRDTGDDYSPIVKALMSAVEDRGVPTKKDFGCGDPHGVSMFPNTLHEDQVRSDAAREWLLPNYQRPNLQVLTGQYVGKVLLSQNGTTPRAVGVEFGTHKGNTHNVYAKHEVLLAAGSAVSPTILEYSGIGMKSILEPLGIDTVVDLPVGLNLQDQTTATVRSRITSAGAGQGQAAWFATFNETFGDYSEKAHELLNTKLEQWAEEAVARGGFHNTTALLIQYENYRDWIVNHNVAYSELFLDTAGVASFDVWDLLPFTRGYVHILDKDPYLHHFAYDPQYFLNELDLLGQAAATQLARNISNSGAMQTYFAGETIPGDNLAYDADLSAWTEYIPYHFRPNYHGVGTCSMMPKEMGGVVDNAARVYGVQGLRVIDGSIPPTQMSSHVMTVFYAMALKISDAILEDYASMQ
Procedure: as §1, §2
Further work with the dithiocarbamate complexes Compounds 10 to 12 was carried out with screen-printed carbon electrodes produced from carbon inks mixed with each of the complexes. […] Catalytic currents in the region of 4 μA were recorded in the presence of GOD and glucose. […]

glucose oxidase (GOD) [5] = target: T2, glucose oxidase (GOD); test: Mediation to glucose oxidase in solution (catalytic wave, enzyme titration in 0.1 M glucose/PBS); assay type: biochemical
[6] = cited from earlier work
[7] = Solubility / stability in aqueous buffer; settings: aqueous buffer / water
[8] = pH 7
glucose oxidase (GOD) [9] = target: T2, glucose oxidase (GOD); settings: literature value (Anal. Chem., 56 (1984) 667); cited from earlier work
[10] = complex in aqueous buffer (PBS)
[11] = 0.5 mM in PBS with added β-cd (0.5-5.0 mM)

catalytic ring current, comparison of mediators [1]: identical catalytic currents
Molecule: 1,1'-dimethylferrocene ethanolamine [reference compound]

Molecule: CN(C)c1ccccc1.[C-]#[O+].[C-]#[O+].[C-]#[O+].[Cr] [Compound 1]
EOX [2]: +250 mV

Molecule: OCCN(CCO)c1ccccc1.[C-]#[O+].[C-]#[O+].[C-]#[O+].[Cr] [Compound 3]
EOX [2]: +250 mV

Molecule: Nc1ccc(N)cc1.[C-]#[O+].[C-]#[O+].[C-]#[O+].[Cr] [Compound 4]
EOX [2]: +135 mV

Molecule: COc1ccc(N)c(OC)c1.[C-]#[O+].[C-]#[O+].[C-]#[O+].[Cr] [Compound 5]
EOX [2]: +170 mV

Molecule: Cc1c(C)c(N)c(C)c(C)c1N.[C-]#[O+].[C-]#[O+].[C-]#[O+].[Cr] [Compound 6]
EOX [2]: +40 mV
reversibility of the voltammetric wave [2, 10]: reversible wave
mid-point potential ([3]; screen-printed electrodes, 3.5 mg complex/g ink, PBS applied): -15 mV
reversibility of the voltammetric wave ([3]; screen-printed electrodes, PBS applied): reversible wave
catalytic current (glucose oxidase (GOD) [4]; mixtures of GOD and glucose applied to screen-printed electrodes containing the mediator): about 1 μA

Molecule: Nc1cc(N)cc(N)c1.[C-]#[O+].[C-]#[O+].[C-]#[O+].[Cr] [Compound 7]
EOX [2]: +50 mV

Molecule: Cc1cc[cH-]c1.[C-]#[O+].[C-]#[O+].[C-]#[O+].[Mn] [Compound 8, (methylcyclopentadienyl)manganese tricarbonyl]
second order rate coefficient for the oxidation of reduced GOD (glucose oxidase (GOD) [5]; 0 to 25 μl GOD titrated into mediator in 0.1 M glucose/PBS, from icat versus [GOD]^1/2): 210000 M⁻¹ s⁻¹

Molecule: [C-]#[O+].[C-]#[O+].[C-]#[O+].[Mn].[c-]1[c-][c-][cH-][c-]1 [Cyclopentadienyl manganese tricarbonyl]
oxidation potential, more positive than ferrocene ([6]; in acetonitrile, relative to ferrocene): ~1.2 V

Molecule: [C-]#[O+].[C-]#[O+].[C-]#[O+].[Cr].c1ccccc1 [benzene chromium tricarbonyl]
half wave potential ([6]; in dichloromethane): +710 mV vs SCE
aqueous solubility (in words) [7]: negligible solubility in buffer

reversibility of the voltammetric wave [2, 10]: reversible wave
potential of the voltammetric wave [2]: +440 mV
Molecule: [MeCpMn(NO)(CN)2 ]Na [Compound 13]

oxidation potential of the species formed by decomposition ([2]; aqueous buffer, irreversibly oxidized): +230 mV
Molecule: [MeCpMn(NO)(CO)2 ]PF6 [Compound 9]

oxidation wave potential [3]: +300 mV
Molecule: [MeCpMn(NO)(S2 CNEt2)] [Compound 11]

Molecule: [MeCpMn(NO)(S2 CNMe2)] [Compound 10]
oxidation wave potential [3]: +240 mV
catalytic current (glucose oxidase (GOD) [4]; 0.1 M glucose, enzyme confined in the carbon electrode with the mediator): up to 29 μA

Molecule: [MeCpMn(NO)(S2 CNMe2)]β-cyclodextrin
ΔEp ([2]; 0.1 M glucose/PBS): 70 mV
reversibility of the voltammetric wave [2, 10]: reversible wave
potential of the voltammetric wave [2]: +255 mV
icat (catalytic wave) (glucose oxidase (GOD) [5]; upon addition of GOD and glucose, 0.1 M glucose/PBS): 9.7 μA
catalytic ring current, comparison of mediators [1]: identical catalytic currents
solubility in PBS [8]: at least 0.5 mM

reversibility of the voltammetric wave [2, 10]: irreversible electrochemistry
potential of the voltammetric wave [2]: about +600 mV
Molecule: [MeCpMn(NO)(bipy)]PF6 [Compound 14]

reversibility of the voltammetric wave [2, 10]: irreversible electrochemistry
potential of the voltammetric wave [2]: about +600 mV
Molecule: [MeCpMn(NO)(phen)]PF6 [Compound 15]

E1/2 [2, 11]: +5 mV
ΔEp [2, 11]: 65 mV
reversibility of the voltammetric wave ([2]; 0.5 mM in buffer with added β-cd (0.5-5.0 mM)): reversible wave
Eox ([2]; 0.6 mM in PBS, 50 mV/s): -25 mV
Molecule: [MeCpMn(NO){(SCCN)2 }][NEt4 ] [Compound 16]

Molecule: ferrocene monocarboxylic acid
second order rate constant for the oxidation of reduced GOD (glucose oxidase (GOD) [9]): 200000 M⁻¹ s⁻¹
